Experiments:
IL23p19 = experiment: LPS Induced IL23p19 in THP-1 Cells (with IFNγ Primed) Assay; type: cell-based; settings: Homo sapiens, IFNγ primed (50 ng/mL), LPS 1 ug/mL, 18 hours, 10 pt, read-out: IL23-p19 ELISA, THP1-IFNy, LPS, 10 pt EC50
Excerpt: LPS Induced IL23p19 in THP-1 Cells (with IFNγ Primed) Assay
THP-1 Cells (ATCC, Cat # TIB-202), Dimethyl Sulfoxide (DMSO) (Sigma-Aldrich, Cat # D2650), RPMI 1640 (Cellgro, Cat #10-040-CM), Fetal Bovine Serum (Sigma, Cat # F4135), Albumin From Bovine Serum (BSA) (Sigma-Aldrich, Cat # A7906), LPS (Serotype K-235, Sigma, Product Number L 2143), IFNγ (Peprotech, Cat #300-02)
Capture antibody: Human IL-23p19 ELISA (e-Bioscience, Cat. #14-7238-85),
Detection antibody: Primary Mouse Biotinylated anti-human IL-12(p40/p70) (e-Bioscience, Cat. #13-7129-85), Secondary HRP-conjugated Streptavidin (R&D Systems, Cat # DY998), 1×PBST Washing Buffer (PBS-Tween tablet) (VWR International, Cat #80058-558), ELISA Blocking Buffer (PBS with 1% BSA), ELISA Dilution Buffer (PBS with 1% BSA), 384 Well Flat-Bottom, MaxiSorp Black Immuno Plates (Thermo Scientific, Cat #12-565-346), 384 Well Flat-Bottom, White Tissue Culture Plates (Thermo Scientific, Cat #12-565-343), Super Signal ELISA Pico Chemiluminescent Substrate (Thermo Scientific, Cat #37070), Cell Titer Glo reagent (Promega, Cat # G7573), Positive control, IKK2VI inhibitor (Calbiochem, Cat #401483), AquaMax 4000 plate washer (Molecular Devices), Luminometer, Wallac Victor2 1420 Multilabel Counter. Method THP-1 Cells Stimulation:
On day 1, 50K/well THP-1 cells were seeded and primed with IFNγ (50 ng/mL) in 384-well plates for about 18 hours in RPMI media with 10% FBS. On day 2, the compound was serially diluted in DMSO from 5 mM in 3-fold dilutions, and then diluted 1:125 in RPMI media with 10% FBS. 50 μL/well 2× compound was added to 50 μL/well THP-1 cells (with IFNγ primed) in duplicate in 384 well tissue culture plates. The cells were pre-incubated with compound for 1 hour at 37° C., 5% CO2 before addition of 10 μL/well 11×LPS to give a final concentration of 1 ug/mL LPS. Day 3, after stimulation for 18 hours at 37° C., 5% CO2, the assay plate was centrifuged and 70 μL/well supernatant was harvested. IL-23p19 protein in 70 μL/well of supernatant was measured by sandwich ELISA, and 25 μl/well Cell Titer Glo reagent was added to the remaining cells to measure compound toxicity.
Human IL-23p19 Sandwich ELISA:
Maxisorp immuno ELISA plates were pre-coated with 25 μL/well of anti-IL-23p19 capture antibody (2.5 ug/mL) in PBS overnight at room temperature. After washing with 1×PBST, the plates were blocked using 100 μL/well of 1% BSA in PBS for 2 hours at room temperature. The plates were washed three times with 1×PBST and 70 μL/well supernatant were added. The plates were incubated at room temperature for 2 hours with shaking and washed three times with 1×PBST. 25 μL/well of biotin labeled anti-IL-12(p40/p70) detection antibody (100 ng/mL) in PBS with 1% BSA was added and the plates were incubated at room temperature for 2 hours with shaking. After washing three times with 1×PBST, 25 μL/well of streptavidin-HRP (1:200) in PBS with 1% BSA was added and the plates were incubated at room temperature for 20 minutes with shaking. The plates were washed three times with 1×PBST and 25 μL/well of Super Signal ELISA Pico Chemiluminescent Substrate were added. The plates were read with a luminometer, and the chemiluminescence values were entered into Athena (Rigel) for curve fitting, EC50 calculation, and database storage.

IL23-p19 = experiment: Compound screening using DC cells: LPS-induced IL-23 (p19/p40) ELISA in IFNγ-primed dendritic cells differentiated from human PBMC; type: cell-based; settings: Dendritic cell, human PBMC-derived dendritic cells, LPS 1 μg/ml, 18 hours, 10 pt
Method: Compound Screening Using DC Cells
Human PBMC cells (400 million) obtained from the vendor were transferred into a T-175 flask containing 15 ml RPMI media (10% FBS) and incubate for 2 hours at 37° C. After 2 hours, the media including floating cells was aspirated out carefully and 12 ml of fresh RPMI media (10% FBS) containing GMCSF (100 ng/ml) and IL4 (20 ng/ml) was added, and the flask was kept in a 37° C. incubator for 7 days.
After 3 days, fresh GMCSF (100 ng/ml) and IL4 (20 ng/ml) were added to the flask and the incubation continued. After 7 days, the fully differentiated cells were harvested by spinning down (1200 rpm/5 min) and aspirating the media. The cells were suspended in fresh RPMI media (10% FBS) containing 50 ng/ml IFNγ (1000 U/ml) and then plated (50K/well in 100 μl) onto a white clear bottom 96 well plate and left in a 37° C. incubator for 24 hours.
After 24 hours incubation, 100 μl of RPMI media was added containing 2× concentrated test compound per well to the above cell-culture media (final concentration becomes 1×) and the plates were pre-incubated for 1 hour at 37° C. before stimulating with LPS.
After 1 hour compound pre-incubation, 10 μl per well of 20× concentrated LPS solution in RPMI media was added to give a final concentration of 1 μg/ml. The mixture was shaken and incubated the plates at 37° C. for an additional 18 hours.
155 μl of the supernatant was harvested from each well carefully (without the tip touching the bottom of the well) and to the remaining 50 μl/well of the cell culture plate was added 50 μl of Cell Titer Glo reagent. The mixture was incubated for 1-2 minutes on a shaker and the plate was read for luminescence intensity to determine the compound cytotoxicity. The cell culture supernatant collected above was used to carry out IL23 ELISA (65 μl—Supernatant) and IL10 ELISA (90 μl—Supernatant) as described below.
Human IL-23 (p19/p40) ELISA Protocol (e-Biosciences)
To 10.5 ml PBS add 50 μl of anti-IL23 (p19) was added capture antibody (2.5 μg/ml). The mixture was mixed well and 100 μl of the coating solution was added to each well of the 96 well white plates from Pierce. The wells were covered and incubated overnight at 4° C.
The anti-IL23 (p19)-antibody-coated plates were washed 2× using TBST (use plate washer) and blocked using 200 μl of 0.5% Casein for 1.5-2 hours at room temperature with shaking.
The plates were washed 2× using TBST and the supernatant was transferred (65 μl/well) to the above pre-blocked/IL23(p19)-antibody-coated 96 well plate, and incubated at room temperature for 1.5 hours with shaking.
The plates were washed 4× using TBST (plate washer) and 100 μl/well detection antibody solution prepared from 2 μl of biotin labeled anti-IL-12 (p40/p70) antibody in 11 ml 1% BSA/PBS solution (I-5000 dilution) was added. The plates were incubated for 1 hour with shaking at Room temperature.
Again, the plates were washed 4× with TBST and 100 μl of HRP labeled Streptavidin (R&D Systems) solution (10 μl/10 ml 1% BSA solution) was added, and the plates were incubated at room temperature for another 45 minutes with shaking.
After 45 minutes, the plates were washed with TBST 4× and 100 ul/well Super Signal ELISA Pico Chemiluminescent Substrate from Pierce (3.5 ml A+3.5 ml B+3.5 ml MQ water) was added. The plates were shaken for 1-2 minutes then read on a plate reader.

EC50 (IL23p19)	EC50 (IL23-p19)	Structure (SMILES)
0.432 µM	0.257 µM	Nc1ccc(-c2ccc(C(=O)Nc3cc4sc(N5CCOCC5)nc4cc3N3CCCCC3)o2)cn1 [Compound I-5, 5-(6-aminopyridin-3-yl)-N-(2-morpholino-5-(piperidin-1-yl)benzo[d]thiazol-6-yl)furan-2-carboxamide]
2.18 µM	1.71 µM	CN1CCN(c2nc3cc(N4CCCCC4)c(NC(=O)c4csc(-c5cc[nH]n5)n4)cc3o2)CC1 [Compound I-21, N-(2-(4-methylpiperazin-1-yl)-5-(piperidin-1-yl)benzo[d]oxazol-6-yl)-2-(1H-pyrazol-3-yl)thiazole-4-carboxamide]
0.0482 µM	0.121 µM	O=C(Nc1cc2oc(N3CCOCC3)nc2cc1N1CCC(F)CC1)c1csc(-c2cn[nH]c2)n1 [Compound I-25, N-(5-(4-fluoropiperidin-1-yl)-2-morpholinobenzo[d]oxazol-6-yl)-2-(1H-pyrazol-4-yl)thiazole-4-carboxamide]
0.026 µM	0.0136 µM	O=C(Nc1cc2sc(N3CCOCC3)nc2cc1N1CCCCC1)c1ccc(-c2cn[nH]c2)o1 [Compound I-7, N-(2-morpholino-5-(piperidin-1-yl)benzo[d]thiazol-6-yl)-5-(1H-pyrazol-4-yl)furan-2-carboxamide]
0.0606 µM	0.0848 µM	O=C(Nc1cc2oc(N3CCOCC3)nc2cc1N1CCCC(F)(F)C1)c1ccc(-c2cn[nH]c2)o1 [Compound I-42, N-(5-(3,3-difluoropiperidin-1-yl)-2-morpholinobenzo[d]oxazol-6-yl)-5-(1H-pyrazol-4-yl)furan-2-carboxamide]
52.1 µM	0.897 µM	Cc1cc(-c2ccc(C(=O)Nc3cc4sc(N5CCOCC5)nc4cc3N3CCCCC3)o2)ccn1 [Compound I-9, 5-(2-methylpyridin-4-yl)-N-(2-morpholino-5-(piperidin-1-yl)benzo[d]thiazol-6-yl)furan-2-carboxamide]
0.0316 µM	0.0141 µM	O=C(Nc1cc2oc(N3CCOCC3)nc2cc1N1CCCC(F)C1)c1ccc(-c2cn[nH]c2)o1 (stereo not drawn) [Compound I-38, N-(5-(3-fluoropiperidin-1-yl)-2-morpholinobenzo[d]oxazol-6-yl)-5-(1H-pyrazol-4-yl)furan-2-carboxamide]
0.133 µM	0.0757 µM	COCCN(C)c1nc2cc(N3CCCCC3)c(NC(=O)c3ccc(-c4cn[nH]c4)o3)cc2o1 [Compound I-50, N-(2-((2-methoxyethyl)(methyl)amino)-5-(piperidin-1-yl)benzo[d]oxazol-6-yl)-5-(1H-pyrazol-4-yl)furan-2-carboxamide]
0.0742 µM	0.0411 µM	COCCN(C)c1nc2cc(N3CCCCC3)c(NC(=O)c3csc(-c4cn[nH]c4)n3)cc2o1 [Compound I-51, N-(2-((2-methoxyethyl)(methyl)amino)-5-(piperidin-1-yl)benzo[d]oxazol-6-yl)-2-(1H-pyrazol-4-yl)thiazole-4-carboxamide]
0.901 µM	12.1 µM	O=C(Nc1cc2oc(N3CCOCC3)nc2cc1N1CCCCC1)c1ccc(-c2cc[nH]n2)o1 [Compound I-4, N-(2-morpholino-5-(piperidin-1-yl)benzo[d]oxazol-6-yl)-5-(1H-pyrazol-3-yl)furan-2-carboxamide]
0.0213 µM	0.058 µM	O=C(Nc1cc2oc(N3CCOCC3)nc2cc1N1CCCC1)c1csc(-c2cn[nH]c2)n1 [Compound I-47, N-(2-morpholino-5-(pyrrolidin-1-yl)benzo[d]oxazol-6-yl)-2-(1H-pyrazol-4-yl)thiazole-4-carboxamide]
0.0258 µM	0.0322 µM	CN1CCN(c2nc3cc(N4CCCCC4)c(NC(=O)c4ccc(-c5cn[nH]c5)o4)cc3o2)CC1 [Compound I-16, N-(2-(4-methylpiperazin-1-yl)-5-(piperidin-1-yl)benzo[d]oxazol-6-yl)-5-(1H-pyrazol-4-yl)furan-2-carboxamide]
0.18 µM	0.121 µM	CN(CCN1CCOCC1)c1nc2cc(N3CCCCC3)c(NC(=O)c3ccc(-c4cn[nH]c4)o3)cc2o1 [Compound I-53, N-(2-(methyl(2-morpholinoethyl)amino)-5-(piperidin-1-yl)benzo[d]oxazol-6-yl)-5-(1H-pyrazol-4-yl)furan-2-carboxamide]
0.344 µM	2.62 µM	Cc1cc(-c2ccc(C(=O)Nc3cc4oc(N5CCOCC5)nc4cc3N3CCCC(F)(F)C3)o2)ccn1 [Compound I-43, N-(5-(3,3-difluoropiperidin-1-yl)-2-morpholinobenzo[d]oxazol-6-yl)-5-(2-methylpyridin-4-yl)furan-2-carboxamide]
10.2 µM	17.9 µM	Cc1cc(-c2nc(C(=O)Nc3cc4oc(N5CCOCC5)nc4cc3N3CCCCC3)cs2)ccn1 [Compound I-14, 2-(2-methylpyridin-4-yl)-N-(2-morpholino-5-(piperidin-1-yl)benzo[d]oxazol-6-yl)thiazole-4-carboxamide]

From patent US10774076B2, “Benzazole compounds and methods for making and using the compounds” (Rigel Pharmaceuticals, Inc., priority 2015, dated 2020)
